Converted amounts (≈) assume the structure as drawn.
Columns and labels:
[1] = biological target: Indoleamine 2,3-dioxygenase 1 (Homo sapiens, UniProt P14902); assay: Inhibition of IDO1 in human HeLa cells using L-tryptophan as substrate incubated for 48 hrs; assay type: cell-based
[2] = tested on: Lewis lung carcinoma cell line; assay: Antimetastatic activity against LLC cells allografted in C57BL6 mouse assessed as inhibition of metastatic nodules in lung at 60 mg/kg, ig after 30 days by H and E staining based analysis relative to control; assay type: functional; conditions: po, 720 h
[3] = Aqueous solubility of compound at 1 mg after 30 hrs by HPLC analysis; assay type: physicochemical
[4] = biological target: Tryptophan 2,3-dioxygenase (Homo sapiens, UniProt P48775); assay: Inhibition of N-terminal His-tagged human TDO expressed in Escherichia coli expression system
Chain of Tryptophan 2,3-dioxygenase (P48775 whole entry): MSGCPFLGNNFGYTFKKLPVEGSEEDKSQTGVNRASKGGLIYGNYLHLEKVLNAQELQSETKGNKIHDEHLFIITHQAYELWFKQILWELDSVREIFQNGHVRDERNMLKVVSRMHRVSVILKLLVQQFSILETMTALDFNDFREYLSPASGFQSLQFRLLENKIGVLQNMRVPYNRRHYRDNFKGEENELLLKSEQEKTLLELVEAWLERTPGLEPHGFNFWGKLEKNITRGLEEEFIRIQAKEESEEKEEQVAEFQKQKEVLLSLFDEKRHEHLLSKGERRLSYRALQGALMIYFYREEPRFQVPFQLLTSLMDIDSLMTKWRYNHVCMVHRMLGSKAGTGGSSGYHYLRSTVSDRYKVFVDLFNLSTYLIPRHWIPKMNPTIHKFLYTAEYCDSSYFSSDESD

[5] = tested on: Lewis lung carcinoma cell line; assay: Antimetastatic activity against LLC cells allografted in C57BL6 mouse assessed as number of metastatic nodules in lung at 60 mg/kg, ig after 30 days by H and E staining based analysis; assay type: functional
[6] = Toxicity in C57BL6 mouse allografted with Lewis cells assessed as increase in body weight at 60 mg/kg, ig measured every 3 days for 30 days; assay type: organism-based; conditions: in vivo, po, 720 h
[7] = biological target: T1, Indoleamine 2,3-dioxygenase 2 (Homo sapiens, UniProt Q6ZQW0); assay: Inhibition of N-terminal His-tagged human IDO2 expressed in Escherichia coli expression system
T1 sequence (Q6ZQW0 whole entry): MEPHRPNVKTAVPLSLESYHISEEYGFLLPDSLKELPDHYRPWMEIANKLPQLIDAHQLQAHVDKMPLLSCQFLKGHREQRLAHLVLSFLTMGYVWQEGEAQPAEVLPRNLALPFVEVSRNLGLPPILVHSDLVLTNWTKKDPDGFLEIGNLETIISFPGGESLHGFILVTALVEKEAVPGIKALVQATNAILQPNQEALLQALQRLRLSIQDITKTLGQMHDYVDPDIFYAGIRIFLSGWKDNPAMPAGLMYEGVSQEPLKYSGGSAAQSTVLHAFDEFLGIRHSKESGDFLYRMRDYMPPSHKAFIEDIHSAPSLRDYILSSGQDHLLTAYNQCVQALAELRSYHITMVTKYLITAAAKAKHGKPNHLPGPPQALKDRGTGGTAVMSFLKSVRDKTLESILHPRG

[8] = Apparent permeability across apical to basolateral side in human Caco2 cells upto 90 mins by LC-MS/MS analysis; assay type: ADME, cell-based; conditions: Caco-2

Chain of Indoleamine 2,3-dioxygenase 1 (P14902 whole entry): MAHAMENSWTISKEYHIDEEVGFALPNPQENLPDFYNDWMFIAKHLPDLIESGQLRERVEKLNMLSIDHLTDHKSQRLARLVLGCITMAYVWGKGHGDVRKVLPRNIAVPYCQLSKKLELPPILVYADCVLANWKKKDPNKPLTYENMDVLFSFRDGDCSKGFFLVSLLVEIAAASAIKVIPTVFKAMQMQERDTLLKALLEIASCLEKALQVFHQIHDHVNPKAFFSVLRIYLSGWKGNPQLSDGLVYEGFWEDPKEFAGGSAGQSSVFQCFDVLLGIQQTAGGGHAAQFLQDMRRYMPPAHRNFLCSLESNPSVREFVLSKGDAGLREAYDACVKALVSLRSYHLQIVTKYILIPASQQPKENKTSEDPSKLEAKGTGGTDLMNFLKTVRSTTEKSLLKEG

For `CCOP(=O)(Cc1cccc2ccccc12)NCCNc1nonc1/C(=N/O)Nc1ccc(F)c(Br)c1` (stereo not given), the IC50 [1] was 126 nM.
For `CCOP(=O)(NCCNc1nonc1/C(=N/O)Nc1ccc(F)c(Br)c1)c1ccccc1` (stereo not given), the IC50 [1] was 132 nM.
`CCOP(=O)(Cc1ccccc1)NCCNc1nonc1/C(=N/O)Nc1ccc(F)c(Br)c1` (stereo not given) gave an IC50 [1] of 119 nM.
In the case of `NS(=O)(=O)NCCNc1nonc1C(=NO)Nc1ccc(F)c(Br)c1` [EPACADOSTAT], the inhibition in vivo at 60 mg/kg [2] is reported as 77%, the solubility at 30 h [3] is reported as 130 µg/mL (≈ 297 µM) and the IC50 [4] is reported as over 10000 nM. For the same compound, the Activity [5] was 21, the Activity [6] was “Toxic” and the IC50 [7] was 710 nM. It also gave a Papp A→B at 1.5 h [8] of 3.1 ×10⁻⁶ cm/s.
